The record followed here is paper PMC10348910, “Epigenetic reprogramming of cell cycle genes by ACK1 promotes breast cancer resistance to CDK4/6 inhibitor” (Oncogene, 2023).

In data set [1] the test system is MCF7, SKBR3, HCC-1395 and MDA-MB-453. The data set is described as follows: apoptosis assay, Annexin V-FITC/PI flow cytometry. In kind it is cell-based. Particulars: 0.25, 0.5, 1 µM. How it is done:
For proliferation assay, 5 × 10^4 cells were plated in 6-well plate and treated with either vehicle (DMSO) or varying concentrations of (R)-9b or palbociclib in complete media for 96 h and number of viable cells were counted by trypan blue exclusion assay. Breast cancer cell lines were treated with vehicle or varying concentrations of (R)-9b for 72 h. The cells were harvested, washed 2 times with PBS and incubated with 3 ul of Annexin V-FITC antibody according to the manufacturers protocol (BD Biosciences). Five µl Propidium iodide was used to stain necrotic cells. The cells were acquired using the BD FACSCalibur machine (BD Biosciences) and data was analyzed using FlowJo software. Cell cycle analysis was performed as mentioned earlier. Briefly, vehicle or (R)-9b (48 h) treated cells were harvested by trypsinization, washed 2 times with PBS, and fixed using chilled 70% Ethanol for 1 h, followed by 2 washes with PBS. […] The data were analyzed using FlowJo software. […]
(A) MCF7, SKBR3, HCC-1395 and MDA-MB-453 cells were treated with 0.25µM, 0.5µM and 1 µM (R)-9b for 96h. […] Quantification of the live, early apoptotic, late apoptotic and necrotic cells is represented using stacked columns. […]

Data set [2] deals with ACK1 (Homo sapiens, UniProt Q07912). Briefly: biochemical. The note with it: 1 uM ATP; read-out: Compound IC50 (M) ACK1.
In data set [3] the test system is MDA-MB-468 xenografts. The data set is described as follows: MDA-MB-468 xenograft in mammary fat pad. In kind it is in vivo, female SCID mice. Here is the method: To validate these findings in breast tumors, MDA-MB-468 cells were injected in female SCID mice. Once palpable tumors were formed (5 weeks), mice were treated with vehicle (6% captisol), palbociclib (80 mg/Kg of body weight), (R)-9b (36 mg/Kg of body weight) by oral route, or (R)-9b (24 mg/Kg of body weight) by subcutaneous injection, five times a week.
Fig. 7 ACK1 inhibitor overcomes palbociclib-resistant breast cancer growth and metastasis. A 3 × 10^6 MDA-MB-468 cells were injected in the 4th inguinal mammary fat pad of female SCID mice. Once the tumors were palpable, the mice were treated with either vehicle (Captisol; n = 7), Palbociclib at 80 mg/kg (n = 6), or (R)-9b at 36 mg/Kg (n = 6) orally. In addition, mice were injected with (R)-9b at 24 mg/Kg (n = 7) subcutaneously. Mice were treated five times a week, for 22 days. B, C The tumors were harvested and photographed, and the weights were recorded. D Vehicle or (R)-9b treated breast cancer cells were subjected to ChIP using pY88-H4 antibody, followed by qPCR for CXCR4 gene. E CXCR4 mRNA transcript levels in vehicle or (R)-9b treated MDA-MB-231 cells. 18S rRNA was used as housekeeping gene. F MDA-MB-231 cells were transfected with ACK1 or scrambled siRNA, followed by qRT-PCR to determine CXCR4 mRNA transcript levels. G Representative lung metastatic deposits of MDA-MB-231 cells injected via the tail veins in female SCID mice, treated with either vehicle or 24 mg/Kg (R)-9b orally. H Graphical quantitation of lung metastatic deposit. I and J 5 × 10^5 luciferase expressing 4T1 cells were injected into 4th inguinal mammary fat pad of female BALB/c mice. Once the tumors were palpable, mice were treated with either vehicle or (R)-9b at 24 mg/Kg (n = 3, each) subcutaneously for 2 weeks, five times a week. The metastases were assessed using IVIS. Data are represented as the mean ± SEM. *p < 0.05; **p < 0.01; ***p < 0.001. For (A, C–F, I), p values were calculated using unpaired two-tailed Student’s t test.
All animal experiments were performed using the standards for humane care in accordance with the NIH Guide for the Care and Use of Laboratory Animals. Mice were obtained from Charles River Laboratories and experiments were performed according to IACUC protocols (IACUC # 20180259) approved in writing by Washington University in St. Louis Department of Comparative Medicine (DCM). 1.5 × 10^6 Cal-148 or MCF7, or 3 × 10^6 MDA-MB-468 cells were suspended in 200 µl of PBS with 50% matrigel (BD Biosciences) and were implanted subcutaneously into the mammary fat pad (between fourth and fifth inguinal) of female SCID C.B17 mice (n = 8 per group). Once the tumors were palpable (about 4–5 weeks), mice were randomly chosen for subcutaneous injection (Cal-148 and MCF7; 24 mg/Kg body weight) or given oral gavage with (R)-9b (MCF7; 36 mg/Kg body weight) resuspended in 6% Captisol (or 6% Captisol in PBS as vehicle), five times a week, for 4–5 weeks. Tumor volumes were measured twice a week using calipers. At the end of the study, all mice were humanely euthanized, tumors extracted and weighed.

The term IC50 denotes the midpoint of a concentration-inhibition curve.

Chain of ACK1 (Q07912 whole entry): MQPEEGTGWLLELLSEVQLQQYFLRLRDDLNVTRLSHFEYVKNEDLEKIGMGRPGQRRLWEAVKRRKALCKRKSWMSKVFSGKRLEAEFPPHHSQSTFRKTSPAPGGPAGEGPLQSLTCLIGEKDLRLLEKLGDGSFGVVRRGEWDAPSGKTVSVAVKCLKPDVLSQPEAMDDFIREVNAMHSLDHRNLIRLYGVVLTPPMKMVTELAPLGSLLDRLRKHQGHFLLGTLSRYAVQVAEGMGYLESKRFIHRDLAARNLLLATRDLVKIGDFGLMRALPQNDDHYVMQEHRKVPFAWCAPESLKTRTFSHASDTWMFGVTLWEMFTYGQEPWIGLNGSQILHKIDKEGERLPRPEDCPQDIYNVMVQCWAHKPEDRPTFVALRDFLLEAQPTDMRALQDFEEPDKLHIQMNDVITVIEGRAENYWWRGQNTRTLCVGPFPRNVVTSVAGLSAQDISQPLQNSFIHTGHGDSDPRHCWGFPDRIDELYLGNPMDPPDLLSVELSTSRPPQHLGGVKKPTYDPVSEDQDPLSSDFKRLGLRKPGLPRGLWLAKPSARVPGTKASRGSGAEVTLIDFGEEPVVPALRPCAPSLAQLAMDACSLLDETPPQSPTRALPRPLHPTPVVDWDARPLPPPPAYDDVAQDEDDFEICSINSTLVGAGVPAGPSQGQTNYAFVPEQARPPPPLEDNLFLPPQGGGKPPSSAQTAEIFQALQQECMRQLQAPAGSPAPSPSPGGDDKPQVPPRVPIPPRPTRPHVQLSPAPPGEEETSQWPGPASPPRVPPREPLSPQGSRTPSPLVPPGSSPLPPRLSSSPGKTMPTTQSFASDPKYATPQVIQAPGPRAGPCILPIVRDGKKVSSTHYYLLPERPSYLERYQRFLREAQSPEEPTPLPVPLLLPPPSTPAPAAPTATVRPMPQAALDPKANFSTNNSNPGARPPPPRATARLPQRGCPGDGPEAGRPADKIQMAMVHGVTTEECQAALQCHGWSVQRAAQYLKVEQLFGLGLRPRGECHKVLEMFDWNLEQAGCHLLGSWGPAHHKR

As for `CN1CCN(c2ccc(Nc3ncc(Cl)c(NC[C@H]4CCCO4)n3)cc2)CC1` [(R)-9b], the “number of cells undergoing apoptosis” value in data set [1] is “marked increase”. Moreover, in data set [2], the IC50 came out at 1.25e-08 M. For the same compound, in data set [3] ((R)-9b 36 mg/Kg oral or 24 mg/Kg subcutaneous, end of experiment), the tumor weights entry was “significant reduction in tumor weights”. Besides, the xenograft tumor growth entry in data set [3] (palbociclib 80 mg/Kg oral, (R)-9b 36 mg/Kg oral or 24 mg/Kg subcutaneous, five times a week, 3 weeks) was “compromised tumors growth”. Moreover, in data set [3] (palbociclib 80 mg/Kg, (R)-9b 36 mg/Kg oral or 24 mg/Kg subcutaneous), the “weights of the mice” value was “did not exhibit significant loss of weight”. In data set [3] (palbociclib 80 mg/Kg, (R)-9b oral and subcutaneous), the “histology (H&E) of heart, spleen, kidneys and livers” value is “did not reveal histological abnormalities”.
